Results on six substances are retold here after US6593299B1, “Compositions and methods for controlling pests” (priority 1999, dated 2003).

Ends that are not written are not given here.

Assay [1] concerns trypsin biosynthesis in the midgut of female Aedes aegypti. Description: NPF injected into blood-fed whole female mosquitoes, midgut trypsin biosynthesis. Type of assay: in vivo. As to conditions: whole blood-fed females, injected 0.25 μl at 10^−6 M, midguts assayed 30 hours later. The method, then:
To determine whether NPF I and II affect trypsin biosynthesis in the midgut of female Aedes aegypti, females were fed a blood meal and immediately injected with 0.25 μl of the peptide at concentrations of 2.5 μg to 12.5 pg and 30 hours later the midguts were removed and assayed for trypsin biosynthesis (Borovsky et al., 1990 “Mosquito Oostatic Factor: A Novel Decapeptide Modulating Trypsin-Like Enzyme Biosynthesis in the Midgut” FASEB J. 4:3015-3020; Borovsky et al. 1993 “Mass Spectrometry and Characterization of Aedes aegypti Trypsin Modulating Oostatic Factor (TMOF) and its Analog” Insect Biochem. Molec. Biol. 23:703-712). Each experiment was repeated 3 times (5 females per group) and the results are expressed as % inhibition of trypsin biosynthesis±S.E.M. (FIG. 1).

Assay [2] deals with TMOF receptor (mosquito gut receptor) (Aedes aegypti). As to the kind of experiment: cell-based or functional assay.
In another assay the test system is Aedes aegypti larvae. Description: Feeding TMOF and analog peptides to mosquito larvae (LD50). Type of assay: in vivo. As to conditions: newly hatched larvae on autoclaved yeast 1 mg/ml, peptide 0 to 5.0 mg/ml, microtiter plates, 7 days. From the text: TMOF can traverse the gut epithelium, enter the hemolymph and bind a gut receptor (Borovsky, D. and F. Mahmood (1995) “Feeding the mosquito Aedes aegypti with TMOF and its analogs; effect on trypsin biosynthesis and egg development,” Regulatory Peptides 57:273-281.; Borovsky et al. (1994) “Characterization and localization of mosquito-gut receptors for trypsin modulating oostatic factor using complementary peptide immunochemistry”FASEB J. 8:350-355.). This characteristic permits the testing of TMOF and its analogues by feeding them to mosquito and other pest larvae. To find out if truncated TMOF peptides have an effect on larval growth and development, a series of peptides were synthesized and tested by feeding them to mosquito larvae at concentrations of 0 to 5.0 mg/ml (Table 2). Individual, newly hatched Aedes aegypti larvae were maintained in separate microtiter plate wells on a diet of autoclaved yeast (1 mg/ml). The diet was supplemented with TMOF peptides (Table 2). An identical number of larvae maintained on yeast served as a control. […] All control groups survived and larval growth and development was normal. Since larvae swallow only a small portion of the yeast particles adsorbed the peptides, it is assumed that approximately 1 to 20 ng are taken orally at the high concentrations.

Assay [3] has as its system first instar Heliothis virescens. As to the kind of experiment: Feeding first instar H. virescens on TMOF analogs for 14 days. Type of assay: in vivo. Also on record: Weight Reduction ± S.E.M.: concentration or dose not given beside the values. As to conditions: first instar larvae fed 14 days; for Weight Reduction ± S.E.M.: versus control. As to the method:
(§1) Several analogues were chosen and were fed to fourth instar Heliothis virescens for seven (7) days and to first instars for fourteen (14) days (Tables 3 and 4). In both cases a reduction in weight gain and trypsin inhibition was noted (Tables 3 and 4).
(§2) Individual first instar and fourth instar larvae of H. virescens were maintained in separate plastic cups and were fed on artificial diet blocks on which different concentrations of TMOF (0 to 1.6 mg) were adsorbed. Larvae were fed for 5 to 14 days and larval weight and trypsin activity were measured at the end of the experimental periods. […] When first instar larvae were fed for 14 days, an 18% and 26% reduction in weight was observed when analogues 15 and 16 were used (Table 4).

In assay [4] the test system is fourth instar Heliothis virescens. As to the kind of experiment: Feeding TMOF analogs to fourth instar H. virescens: larval weight. As to conditions: fourth instar larvae; for Weight Gain: 0.8 mg of analogue, 5 days; for Weight mg ± S.E.M. End: synthetic food and 0.8 mg of analogue, after 5 days; for Weight mg ± S.E.M. Start: weight before feeding (baseline). Type of assay: in vivo. The method, then:
as §1, §2
Fourth instar larvae were weighed and fed on synthetic food and 0.8 mg of TMOF analogues for 5 days. […]. Results are average of 3 to 10 experiments S.E.M.

The test system of a further assay is TTLE biosynthesis. As to the kind of experiment: Feeding TMOF analogs to fourth instar H. virescens: gut trypsin (TTLE) biosynthesis by [3H]DFP. As to conditions: fourth instar larvae, 0.8 mg of analogue, 5 days; for Trypsin: guts incubated with [3H]DFP; for Inhibition (trypsin): versus control. Set-up: Trypsin: unit not given here. Type of assay: in vivo, Heliothis virescens.

As to “Ala-Pro-Ser-Arg-Leu-Arg-Phe-amide (APSRLRF-NH2) [NPF II]”, in assay [1], the “% inhibition of trypsin biosynthesis” value was 35%.
Regarding “NPF I (Ala-Arg-Gly-Pro-Gln-Leu-Arg-Leu-Arg-Phe-amide) (peptide)”, in assay [2], the inhibition of trypsin biosynthesis (ligated abdomens of blood-fed female Aedes aegypti, 30 h after injection) (% inhibition at 10^-6 M) turned out to be 54.
Take YDAAP [15. YDAAP, YDAAP]: the “LD50 + S.E.M.” value in the assay with Aedes aegypti larvae is recorded as 1.0 ± 0.18 mM. Also, in assay [3], the “Number of Dead Larvae” value is reported as 0, the “Weight ± S.E.M.” value is on record as 133 ± 7 mg and the “Weight Reduction ± S.E.M.” value is given as 18 ± 1%. In assay [4], the “Weight Gain” value came out at 179 mg, the “Weight mg ± S.E.M. End” value was found to be 217 ± 9.5 mg and the “Weight mg ± S.E.M. Start” value was found to be 38.2 ± 1.3 mg. Also, in the assay on TTLE biosynthesis, the Trypsin was 2.1 ± 0.2 and the “Inhibition (trypsin)” value came to 17 ± 1.6%.
As to YDFAP [14. YDFAP, YDFAP], the “LD50 + S.E.M.” value with Aedes aegypti larvae was 0.74 ± 0.13 mM. Also, in assay [3], the “Number of Dead Larvae” value was determined as 1, the “Weight ± S.E.M.” value is reported as 121 ± 7 mg and the “Weight Reduction ± S.E.M.” value amounted to 26 ± 1.5%. Further, in assay [4], the “Weight Gain” value came out at 164 mg, the “Weight mg ± S.E.M. End” value came out at 201 ± 12 mg and the “Weight mg ± S.E.M. Start” value is on record as 37 ± 1.3 mg. Also, in the assay with TTLE biosynthesis, the Trypsin was 2.1 ± 0.2 and the “Inhibition (trypsin)” value is given as 19 ± 1.5%.
As to YDPGP [16. YDPGP, YDPGP], the “LD50 + S.E.M.” value in the assay with Aedes aegypti larvae was determined as 1.1 ± 0.18 mM. In addition, in assay [3], the “Number of Dead Larvae” value came to 2, the “Weight ± S.E.M.” value stood at 153 ± 10 mg and the “Weight Reduction ± S.E.M.” value came out at 6 ± 0.4%. In assay [4], the “Weight Gain” value is given as 163.1 mg, the “Weight mg ± S.E.M. End” value is recorded as 199.8 ± 11 mg and the “Weight mg ± S.E.M. Start” value is 31.7 ± 1.6 mg. In the assay on TTLE biosynthesis, the Trypsin turned out to be 2.1 ± 0.1 and the “Inhibition (trypsin)” value was 17 ± 1%.
As to YSPAP [18. YSPAP, YSPAP], the “LD50 + S.E.M.” value with Aedes aegypti larvae came to 1.4 ± 0.03 mM. In addition, in assay [3], the “Number of Dead Larvae” value is 0, the “Weight ± S.E.M.” value came out at 168 ± 11 mg and the “Weight Reduction ± S.E.M.” value amounted to 0%. In addition, in assay [4], the “Weight Gain” value came out at 151 mg, the “Weight mg ± S.E.M. End” value worked out at 188 ± 10.6 mg and the “Weight mg ± S.E.M. Start” value was determined as 30.6 ± 1.2 mg. In addition, in the assay on TTLE biosynthesis, the Trypsin was 2.0 ± 0.2 and the “Inhibition (trypsin)” value amounted to 19 ± 2%.
